Measurements published in patent publication US5869460A, “Sulfated and phosphated saccharide derivatives, process for the preparation of the same and use thereof” (Sanwa Kaguku Kenkyusho Co., Ltd., priority 1995, dated 1999).

What was measured:
[1] = tested on: lung damage model induced by cobra venom factor (CVF); bleeding; test: Anti-inflammatory action to lung damage model induced by CVF: index of bleeding (hemoglobin absorbance, 541 nm, in lung homogenate supernatant); format: in vivo, Lewis rats; details: Rattus norvegicus, iv, 0.5 h, read-out: Inhibition rate (%), index of bleeding
Procedure: (§1) Anti-inflammatory action to lung damage model induced by CVF Compounds obtained by Examples and an exemplary known compound (sulfatide) were selected as Test Compounds to check an inflammatory action thereof to a lung damage model induced by cobra venom factor (CVF), in accordance with the method described by M. S. Mulligan et al ["J. IMMUNOL.", Vol.151, page 6410 (1993); and "INT. IMMUNOL.", Vol. 7, page 1107 (1995)].
(§2) Namely, the test compound was intravenously injected by an amount of 0.2 mg/rat to test animals (Lewis rats, age of 8 weeks, 5 animals in each group). After lapsed 5 minutes from administration, CVF (20U/2 ml/kg) was administered in a tail vein, and after 30 minutes, a laparotomy was carried out under nembutal anesthesia to perfuse the lung with phosphate-buffered saline (PBS, pH7.4) by injecting the same from right ventricle and to exenterate the lung. The extracted lung was homogenized with phosphate buffer (pH 7.4), centrifuged to collect a supernatant, and determined absorbance which was admitted as index of bleeding (It measures an amount of hemoglobin and thus detection wave-length was set to 541 nm).
(§3) Each inhibition rate (%) was calculated by
(§4) 100×[1-(value of test compound-value of negative control)/(value of positive control-value of negative control)].

[2] = tested on: lung damage model induced by cobra venom factor (CVF); infiltration in neutrocyte (myeloperoxidase); test: Anti-inflammatory action to lung damage model induced by CVF: myeloperoxidase activity as index of infiltration in neutrocyte; format: in vivo, Lewis rats; details: Rattus norvegicus, iv, 0.5 h, read-out: Inhibition rate (%), myeloperoxidase activity as index of infiltration in neutrocyte
Procedure: as §1, §2
On the other hand, the precipitation obtained by centrifugation was sonicated in the presence of cetrimide and centrifuged to obtain a supernatant, an activity myeloperoxidase therein being measured as an index of infiltration in neutrocyte.
as §3, §4

Structure (SMILES) | inhibition in vivo at 0.2 mg [1] | inhibition in vivo at 0.2 mg [2]
CCCCCCCCCCCCCCC(CCCCCCCCCCCCCC)CO[C@@H]1O[C@H](COP(=O)(O)O)[C@H](OP(=O)(O)O)[C@H](OP(=O)(O)O)[C@H]1OP(=O)(O)O [Example 14, Octasodium 2-tetradecylhexadecyl β-D-galactopyranoside2,3,4,6-tetraphosphate] | 55% | 41%
CCCC(CCC)CO[C@@H]1O[C@H](CO)[C@@H](O[C@@H]2O[C@H](COS(=O)(=O)O)[C@H](O)[C@H](OS(=O)(=O)O)[C@H]2O)[C@H](O)[C@H]1O [Example 10-2, disodium 2-propylpentyl O-β-D-galactopyranosyl-(1→4)-β-D-glucopyranoside 3',6'-disulfate] | 63% | 82%
CCCC(CCC)CO[C@@H]1O[C@H](CO)[C@H](O)[C@H](OS(=O)(=O)O)[C@H]1O [Example 4, Sodium 2-pronylpentyl β-D-galactopyranoside 3-sulfate] | 39% | 58%
CCCC(CCC)CO[C@@H]1O[C@H](CO)[C@H](OP(=O)(O)O)[C@H](OP(=O)(O)O)[C@H]1O [Example 16, Tetrasodium 2-propylpentyl β-D-galactopyranoside 3,4-diphosphate] | 75% | 70%
CCCC(CCC)CO[C@@H]1O[C@H](COP(=O)(O)O)[C@H](OP(=O)(O)O)[C@H](OP(=O)(O)O)[C@H]1OP(=O)(O)O [Example 13, Octasodium 2-propylpentyl β-D-galactopyranoside 2,3,4,6-tetranhosphate] | 43% | 46%
CCCC(CCC)CO[C@@H]1O[C@H](CO)[C@@H](OP(=O)(O)O)[C@H](OP(=O)(O)O)[C@H]1OP(=O)(O)O [Example 20, Hexasodium 2-propylpentyl δ-D-glucopyranoside 2,3,4-triphosphate] | 45% | 40%
CCCC(CCC)CO[C@@H]1O[C@H](CO)[C@@H](O[C@@H]2O[C@H](CO)[C@H](O)[C@H](OS(=O)(=O)O)[C@H]2O)[C@H](O)[C@H]1O [Example 10-1, Sodium 2-propylpentyl O-β-D-galactopyranosyl-(1→4)-β-D-glucopyranoside 3'-sulfate] | 65% | 66%
CC(C)CO[C@@H]1O[C@H](COP(=O)(O)O)[C@H](OP(=O)(O)O)[C@H](OP(=O)(O)O)[C@H]1OP(=O)(O)O [Example 12, Octasodium 2-methylpropyl β-D-galactopyranoside 2,3,4,6-tetranhosphate] | 0% | 30%
CCCC(CCC)CO[C@@H]1O[C@H](CO)[C@H](O)[C@H](OP(=O)(O)O)[C@H]1O[C@@H]1O[C@@H](C)[C@@H](O)[C@@H](OP(=O)(O)O)[C@@H]1O [Example 24-2, tetrasodium 2-propylpentyl O-α-L-fucopyranosyl-(1→2)-β-D-galactopyranoside 3,3'-diphosphate] | 50% | 49%
CCCC(CCC)CO[C@@H]1O[C@H](CO)[C@@H](O[C@@H]2O[C@H](CO)[C@H](OP(=O)(O)O)[C@H](OP(=O)(O)O)[C@H]2O)[C@H](O)[C@H]1O [Example 21, Tetrasodium 2-propylpentyl O-β-D-galactopyranosyl-(1→4)-β-D-glucopyranoside 3',4'-diphosphate] | 64% | 52%
CC(C)CO[C@@H]1O[C@H](CO)[C@@H](O[C@@H]2O[C@H](CO)[C@H](O)[C@H](OS(=O)(=O)O)[C@H]2O)[C@H](O)[C@H]1O [Example 9-1, sodium 2-methylpropyl O-β-D-galactopyranosyl-(1→4)-β-D-glucopyranoside 3'-sulfate] | 84% | 58%
CCCCCCCCCCCCCCC(CCCCCCCCCCCCCC)CO[C@@H]1O[C@H](CO)[C@H](O)[C@H](OS(=O)(=O)O)[C@H]1O[C@@H]1O[C@@H](C)[C@@H](O)[C@@H](OS(=O)(=O)O)[C@@H]1O [Example 28-1, disodium 2-tetradecylhexadecyl O-α-L-fucopyranosyl-(1→2)-β-D-galactopyranoside 3,3'-disulfate] | 63% | 60%
CC(C)CO[C@@H]1O[C@H](CO)[C@H](OP(=O)(O)O)[C@H](OP(=O)(O)O)[C@H]1O [Example 15, Tetrasodium 2-methylpropyl β-D-galactopyranoside 3,4-diphosphate] | 45% | 44%
CCCCCCCCCCCCCCC(CCCCCCCCCCCCCC)CO[C@@H]1O[C@H](CO)[C@H](OP(=O)(O)O)[C@H](OP(=O)(O)O)[C@H]1O [Example 17, Tetrasodium 2-tetradecylhexadecyl β-D-galactopyranoside 3,4-dinhosphate] | 74% | 73%
CCCCCCCCCCCCCCC(CCCCCCCCCCCCCC)CO[C@@H]1O[C@H](COS(=O)(=O)O)[C@H](O)[C@H](OS(=O)(=O)O)[C@H]1O[C@@H]1O[C@@H](C)[C@@H](O)[C@@H](O)[C@@H]1O [Example 29, Disodium 2-tetradecylhexadesyl O-α-L-fuconyranosyl-(1→2)-β-D-galactopyranoside 3,6-disulfate] | 67% | 65%
CCCCCCCCCCCCCCC(CCCCCCCCCCCCCC)CO[C@@H]1O[C@H](CO)[C@@H](O[C@@H]2O[C@H](COS(=O)(=O)O)[C@H](O)[C@H](OS(=O)(=O)O)[C@H]2O)[C@H](O)[C@H]1O [Example 11-1, Disodium 2-tetradecylhexadecyl O-β-D-galactopyranosyl-(1→4)-β-D-glucopyranoside 3',6'-disulfate] | 100% | 82%
CCCC(CCC)CO[C@@H]1O[C@H](CO)[C@H](O)[C@H](OS(=O)(=O)O)[C@H]1O[C@@H]1O[C@@H](C)[C@@H](O)[C@@H](O)[C@@H]1O [Example 23-1, Sodium 2-propylpentyl O-α-L-fucopyranosyl-(1→2)-β-D-galactopyranoside 3-sulfate] | 53% | 51%
CCCC(CCC)CO[C@@H]1O[C@H](COS(=O)(=O)O)[C@H](OS(=O)(=O)O)[C@H](OS(=O)(=O)O)[C@H]1OS(=O)(=O)O [Example 7-2, tetrasodium 2-propylpentyl β-D-galactopyranoside 2,3,4,6-tetrasulfate] | 42% | 42%
CC(C)CO[C@@H]1O[C@H](COS(=O)(=O)O)[C@H](O)[C@H](OS(=O)(=O)O)[C@H]1O [Example 1-2, disodium 2-methylpropyl β-D-galactopyranoside 3,6-disulfate] | 16% | 22%
CCCCCCCCCCCCCCC(CCCCCCCCCCCCCC)CO[C@@H]1O[C@H](COS(=O)(=O)O)[C@@H](O[C@@H]2O[C@H](COS(=O)(=O)O)[C@H](O)[C@H](OS(=O)(=O)O)[C@H]2O)[C@H](O)[C@H]1O [Example 11-2, trisodium 2-tetradecylhexadecyl O-β-D-galactopyranosyl-(1→4)-β-D-glucopyranoside 3',6',6-trisulfate] | 82% | 70%
CC(C)CO[C@@H]1O[C@H](CO)[C@@H](O[C@@H]2O[C@H](COS(=O)(=O)O)[C@H](O)[C@H](OS(=O)(=O)O)[C@H]2O)[C@H](O)[C@H]1O [Example 9-2, disodium 2-methylpropyl O-β-D-galactopyranosyl-(1→4)-β-D-glucopyranoside 3',6'-disulfate] | 100% | 86%
CCCCCCCCCCCCCCC(CCCCCCCCCCCCCC)CO[C@@H]1O[C@H](CO)[C@H](O)[C@H](OP(=O)(O)O)[C@H]1O[C@@H]1O[C@@H](C)[C@@H](O)[C@@H](OP(=O)(O)O)[C@@H]1O [Example 28-2, tetrasodium 2-tetradecylhexadecyl O-α-L-fucopyranosyl-(1→2)-β-D-galactopyranoside 3,3'-diphosphate] | 63% | 55%
CC(C)CO[C@@H]1O[C@H](COS(=O)(=O)O)[C@H](OS(=O)(=O)O)[C@H](OS(=O)(=O)O)[C@H]1O [Example 3-1, trisodium 2-methylpropyl β-D-galactopyranoside 3,4,6-trisulfate] | 27% | 36%
CCCC(CCC)CO[C@@H]1O[C@H](CO)[C@H](O)[C@H](OP(=O)(O)O)[C@H]1O[C@@H]1O[C@@H](C)[C@@H](O)[C@@H](O)[C@@H]1O [Example 23-2, disodium 2-propylpentyl O-α-L-fucopyranosyl-(1→2)-β-D-galactopyranoside 3-phosphate] | 51% | 49%
CCCC(CCC)CO[C@@H]1O[C@H](COS(=O)(=O)O)[C@H](O)[C@H](OS(=O)(=O)O)[C@H]1O [Example 6, Disodium 2-propylpentyl β-D-galactopyranoside 3,6-disulfate] | 0% | 12%
